Several values for one entry are separate records, joined by “and”; a condition that tells them apart may be missing. Equal entries are not always repeated.
What was measured:
Format in all cases: in vivo, Balb/c male mice
[1] = Animal bioavailability of Compound 3, i.v. experiment: plasma and organ levels by LC/MS; settings: IV, 238 min
Method: (§1) Twenty 8-week-old Balb/c male mice (Charles River, US) were used in all experiments. Mice were kept at a temperature of 22±3° C. and provided with a standard diet and water.
(§2) For i.v. experiment mice received standard food before and during the experiment. For oral route, mice received no food 3 h before the start of the experiment and no food after.
0.1 mL of a solution of Compound 3, 3 mg/mL in mannitol 5% (previously sterilized by filtration onto Acrodisc® syringe filter 0.2 μm HT Tuffryn® membrane) was injected in the tail vein. Two animals were killed 0.5 h after injection, two animals were killed 1 h after injection, two animals were killed 2 h after injection and two animals were killed 4 h after injection.
(§3) At the time of sacrifice, mice were bled by heart puncture. Then organs were removed for biochemical studies (brain, kidney, liver and lung).
Red blood cells and plasma were separated by addition of heparine (15 μL) and centrifugation (2000 rpm, 5 min). […] The liquid layer (50 μL) was then analysed by LC/MS (MRM procedure, Column PARTISIL 5 ODS-3 RAC II, Cat. no. 4222-225).
Organs were washed with 5 ml of distillated water and dried with blotting paper. Volumes of organs were measured by addition of the organ into one half full of water graduated test tube. […]

[2] = Animal bioavailability of Compound 3, oral route experiment (gavage): plasma and organ levels by LC/MS; settings: for Brain: Oral
Method: as §1, §2
Animals received by gavage a 0.1 mL of a solution of Compound 3 3 mg/mL in mannitol 5% (previously sterilized by filtration onto Acrodisc® syringe filter […] HT Tuffryn® membrane). Two animals were killed 0.5 h after gavage, two animals were killed 1 h after gavage, two animals were killed 2 h after gavage and two animals were killed 4 h after gavage.
as §3
Red blood cells and plasma were separated by addition of heparine (15 μL) and centrifugation (2000 rpm, 5 min). Then 1.5 mL of HPLC mobil phase (Ammonium acetate 3 mM, acetonitrile, methanol, formic acid; 1/1/1/0.07 (v/v) at pH=3) were added to 40 μL of plasma and the mixture was centrifugated (2000 rpm, 5 min). The liquid layer (50 μL) was then analysed by LC/MS (MRM procedure, Column PARTISIL 5 ODS-3 RAC II, Cat. no. 4222-225).
Organs were washed with 5 ml of distillated water and dried with blotting paper. Volumes of organs were measured by addition of the organ into one half full of water graduated test tube. Organs were dried a second time with blotting paper and then weighed. A volume of mobil phase (in mL) corresponding to 6 times of the organ weigh (in g) was added to the organ. The mixture was crushed mechanically (with JANKE & KUNKEL, IKA Labortechnik ULTRA-TURRAX T25; 24000 rpm, 1 min), sonicated 30 min and centrifugated 20 min (2000 rpm). To this mixture, 1 mL of the liquid layer was removed and filtrated with Acrodisc CRPTFE® syringe Filter in order to obtain a clear solution suitable for LC/MS analysis.

[3] = Animal bioavailability of Compound 3, i.v. experiment: plasma and organ levels by LC/MS; settings: IV, 82 min
[4] = 0.1 mL of 3 mg/mL in mannitol 5%, individual mouse
[5] = third line = mean of the two mice

## {[{(Porphine-5,15-diyl)bis[cyclopropyl-diyl]}](2-)-N^21,N^22,N^23,N^24}manganese(III)acetate [Compound 3]
[1]; [4]
  Brain: 89 ng/g and 91 ng/g
[1]; [5]
  Brain: 90 ng/g
[2]; Oral 70 min mean relative to IV 82 min mean (in parentheses)
  Brain, oral level as percent of IV level: (112%)
[2]; Oral 234 min mean relative to IV 238 min mean (in parentheses)
  Brain, oral level as percent of IV level: (10%)
[2]; 70 min, 0.1 mL of 3 mg/mL in mannitol 5% by gavage, individual mouse
  Brain: 88 ng/g and 24 ng/g
[2]; 70 min, third line = mean of the two mice
  Brain: 56 ng/g
[2]; 234 min, 0.1 mL of 3 mg/mL in mannitol 5% by gavage, individual mouse
  Brain: 8 ng/g and 9 ng/g
[2]; 234 min, third line = mean of the two mice
  Brain: 9 ng/g
[2]; mouse, in vivo, po
  Lung: 67 ng/g
[3]; [4]
  Brain: 25 ng/g and 75 ng/g
[3]; [5]
  Brain: 50 ng/g

From patent US7649091B2, “Orally bioavailable low molecular weight metalloporphyrins as antioxidants” (Eukarion, Inc., priority 2003, dated 2010)
